Test results from ChEMBL document CHEMBL5653631, “A Potent and Selective ULK1 Inhibitor Suppresses Autophagy and Sensitizes Cancer Cells to Nutrient Stress” (iScience, 2018).
One block for each compound: values may come before it.

Columns and labels:
[1] = target: Mitogen-activated protein kinase 1 (Homo sapiens) (UniProt P28482); assay: Inhibition of human recombinant Erk2 at 500 nM related to control ULK1
[2] = target: Tyrosine-protein kinase Lck (Homo sapiens) (UniProt P06239); assay: Inhibition of human recombinant LCK at 500 nM related to control ULK1
Chain of Tyrosine-protein kinase Lck (Homo sapiens) (P06239 2-509 limits assumed): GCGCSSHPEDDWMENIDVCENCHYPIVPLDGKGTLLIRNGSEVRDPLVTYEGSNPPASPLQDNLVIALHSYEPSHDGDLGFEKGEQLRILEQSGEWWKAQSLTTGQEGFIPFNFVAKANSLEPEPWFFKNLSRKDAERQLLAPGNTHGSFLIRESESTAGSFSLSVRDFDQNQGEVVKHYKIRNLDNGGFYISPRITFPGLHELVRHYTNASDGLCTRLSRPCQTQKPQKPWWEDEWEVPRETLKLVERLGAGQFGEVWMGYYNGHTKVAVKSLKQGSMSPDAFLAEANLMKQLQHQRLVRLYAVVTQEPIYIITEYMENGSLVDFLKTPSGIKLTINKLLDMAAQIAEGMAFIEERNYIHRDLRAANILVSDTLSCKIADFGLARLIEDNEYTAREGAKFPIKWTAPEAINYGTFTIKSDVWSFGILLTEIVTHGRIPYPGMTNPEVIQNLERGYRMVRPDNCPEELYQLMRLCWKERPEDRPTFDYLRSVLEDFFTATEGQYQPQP

[3] = target: Serine/threonine-protein kinase MRCK beta (Homo sapiens) (UniProt Q9Y5S2); assay: Inhibition of human recombinant MRCKb at 500 nM related to control ULK1
Chain of Serine/threonine-protein kinase MRCK beta (Homo sapiens) (Q9Y5S2 whole entry): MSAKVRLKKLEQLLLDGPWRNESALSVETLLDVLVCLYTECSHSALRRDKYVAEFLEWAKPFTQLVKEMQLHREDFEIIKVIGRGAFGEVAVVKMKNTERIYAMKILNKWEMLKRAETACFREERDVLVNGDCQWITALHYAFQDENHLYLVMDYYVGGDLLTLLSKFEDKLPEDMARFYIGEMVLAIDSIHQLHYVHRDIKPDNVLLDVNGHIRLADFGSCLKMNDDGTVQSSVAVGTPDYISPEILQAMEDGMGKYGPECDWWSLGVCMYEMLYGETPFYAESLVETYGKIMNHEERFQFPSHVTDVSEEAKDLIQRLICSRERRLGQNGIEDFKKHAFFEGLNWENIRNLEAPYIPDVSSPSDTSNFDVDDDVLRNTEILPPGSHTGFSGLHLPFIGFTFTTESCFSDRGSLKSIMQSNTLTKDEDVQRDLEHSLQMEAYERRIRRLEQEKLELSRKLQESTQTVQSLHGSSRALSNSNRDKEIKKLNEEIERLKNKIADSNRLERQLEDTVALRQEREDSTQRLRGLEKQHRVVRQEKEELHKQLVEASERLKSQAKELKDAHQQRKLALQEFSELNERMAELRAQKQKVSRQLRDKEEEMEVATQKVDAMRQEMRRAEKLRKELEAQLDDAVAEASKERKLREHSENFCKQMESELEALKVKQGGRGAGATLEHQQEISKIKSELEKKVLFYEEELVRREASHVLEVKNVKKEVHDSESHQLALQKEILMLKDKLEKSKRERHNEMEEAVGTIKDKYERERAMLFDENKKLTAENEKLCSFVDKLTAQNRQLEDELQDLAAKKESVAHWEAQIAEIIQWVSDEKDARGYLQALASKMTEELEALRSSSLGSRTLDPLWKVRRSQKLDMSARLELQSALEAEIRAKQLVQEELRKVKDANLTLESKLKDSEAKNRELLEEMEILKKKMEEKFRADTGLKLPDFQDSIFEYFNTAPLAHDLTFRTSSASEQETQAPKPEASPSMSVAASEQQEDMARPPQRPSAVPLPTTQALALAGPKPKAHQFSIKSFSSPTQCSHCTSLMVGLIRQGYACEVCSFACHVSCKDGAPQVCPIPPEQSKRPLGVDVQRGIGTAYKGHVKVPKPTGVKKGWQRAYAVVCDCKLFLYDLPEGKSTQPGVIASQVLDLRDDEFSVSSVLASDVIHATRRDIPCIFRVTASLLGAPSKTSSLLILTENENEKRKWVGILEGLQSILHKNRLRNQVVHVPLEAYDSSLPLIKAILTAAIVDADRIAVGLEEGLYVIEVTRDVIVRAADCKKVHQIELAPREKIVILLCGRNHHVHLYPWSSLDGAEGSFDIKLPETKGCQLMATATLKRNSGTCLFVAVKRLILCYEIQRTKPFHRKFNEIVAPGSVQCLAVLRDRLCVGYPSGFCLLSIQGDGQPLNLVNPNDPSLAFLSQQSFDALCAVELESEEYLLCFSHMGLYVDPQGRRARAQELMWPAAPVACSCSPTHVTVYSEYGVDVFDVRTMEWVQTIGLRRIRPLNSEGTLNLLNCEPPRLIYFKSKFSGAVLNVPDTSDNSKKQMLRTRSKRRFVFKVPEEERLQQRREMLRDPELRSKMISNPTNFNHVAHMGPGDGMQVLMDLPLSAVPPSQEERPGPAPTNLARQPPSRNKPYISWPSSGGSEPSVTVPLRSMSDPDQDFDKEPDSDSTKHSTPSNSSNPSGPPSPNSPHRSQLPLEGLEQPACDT

[4] = target: Serine/threonine-protein kinase pim-2 (Homo sapiens) (UniProt Q9P1W9); assay: Inhibition of human recombinant PIM2 at 500 nM related to control ULK1
Chain of Serine/threonine-protein kinase pim-2 (Homo sapiens) (Q9P1W9 whole entry, looked up): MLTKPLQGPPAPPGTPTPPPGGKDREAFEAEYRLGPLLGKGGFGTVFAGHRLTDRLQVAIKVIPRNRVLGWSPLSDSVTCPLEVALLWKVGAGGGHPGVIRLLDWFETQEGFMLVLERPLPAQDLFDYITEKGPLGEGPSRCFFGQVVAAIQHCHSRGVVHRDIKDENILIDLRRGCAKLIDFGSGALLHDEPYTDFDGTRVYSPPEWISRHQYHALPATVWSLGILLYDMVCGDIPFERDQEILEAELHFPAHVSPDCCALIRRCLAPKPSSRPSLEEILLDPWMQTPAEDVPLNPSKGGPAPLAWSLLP

[5] = target: T1, Serine/threonine-protein kinase ICK (Homo sapiens) (UniProt Q9UPZ9); assay: Inhibition of human recombinant ICK at 15 nM in presence of ATP by radiometric assay relative to control
T1 sequence (whole entry): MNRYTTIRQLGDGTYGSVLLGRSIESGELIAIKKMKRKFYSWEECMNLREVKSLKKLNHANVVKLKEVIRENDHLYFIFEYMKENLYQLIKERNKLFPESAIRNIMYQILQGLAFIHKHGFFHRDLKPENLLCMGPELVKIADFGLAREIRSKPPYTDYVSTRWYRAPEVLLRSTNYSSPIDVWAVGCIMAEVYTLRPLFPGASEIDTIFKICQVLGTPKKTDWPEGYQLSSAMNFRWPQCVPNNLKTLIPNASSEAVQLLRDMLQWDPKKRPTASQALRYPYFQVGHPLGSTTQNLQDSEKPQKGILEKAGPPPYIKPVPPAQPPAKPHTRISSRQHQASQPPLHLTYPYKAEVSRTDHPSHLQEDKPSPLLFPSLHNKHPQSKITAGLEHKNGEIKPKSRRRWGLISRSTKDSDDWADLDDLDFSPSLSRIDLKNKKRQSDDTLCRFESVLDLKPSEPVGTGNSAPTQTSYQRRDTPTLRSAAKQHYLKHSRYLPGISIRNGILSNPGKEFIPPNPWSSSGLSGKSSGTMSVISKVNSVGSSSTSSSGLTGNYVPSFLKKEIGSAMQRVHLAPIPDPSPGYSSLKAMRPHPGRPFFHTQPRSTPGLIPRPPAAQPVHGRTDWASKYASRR

[6] = target: Wee1-like protein kinase (Homo sapiens) (UniProt P30291); assay: Inhibition of human recombinant Wee1 at 15 nM related to control ULK1
Chain of Wee1-like protein kinase (Homo sapiens) (P30291 whole entry, looked up): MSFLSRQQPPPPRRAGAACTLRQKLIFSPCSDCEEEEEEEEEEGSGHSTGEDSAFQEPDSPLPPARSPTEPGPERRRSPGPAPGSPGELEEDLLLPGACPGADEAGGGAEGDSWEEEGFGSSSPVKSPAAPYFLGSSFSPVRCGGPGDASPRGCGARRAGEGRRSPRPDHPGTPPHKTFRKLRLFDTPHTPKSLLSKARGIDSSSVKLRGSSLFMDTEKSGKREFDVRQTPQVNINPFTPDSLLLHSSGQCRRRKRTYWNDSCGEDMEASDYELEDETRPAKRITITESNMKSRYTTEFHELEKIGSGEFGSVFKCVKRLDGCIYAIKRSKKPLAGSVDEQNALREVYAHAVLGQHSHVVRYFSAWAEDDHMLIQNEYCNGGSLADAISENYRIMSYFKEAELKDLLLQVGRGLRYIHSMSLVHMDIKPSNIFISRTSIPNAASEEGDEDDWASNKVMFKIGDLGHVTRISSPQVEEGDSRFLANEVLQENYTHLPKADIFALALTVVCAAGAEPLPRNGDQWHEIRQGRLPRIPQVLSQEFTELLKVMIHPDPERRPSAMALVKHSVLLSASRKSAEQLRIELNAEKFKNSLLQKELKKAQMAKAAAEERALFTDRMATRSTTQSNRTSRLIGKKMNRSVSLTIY

[7] = target: T2, Ephrin type-B receptor 3 (Homo sapiens) (UniProt P54753); assay: Inhibition of human recombinant EphB3 at 15 nM related to control ULK1
T2 sequence (whole entry): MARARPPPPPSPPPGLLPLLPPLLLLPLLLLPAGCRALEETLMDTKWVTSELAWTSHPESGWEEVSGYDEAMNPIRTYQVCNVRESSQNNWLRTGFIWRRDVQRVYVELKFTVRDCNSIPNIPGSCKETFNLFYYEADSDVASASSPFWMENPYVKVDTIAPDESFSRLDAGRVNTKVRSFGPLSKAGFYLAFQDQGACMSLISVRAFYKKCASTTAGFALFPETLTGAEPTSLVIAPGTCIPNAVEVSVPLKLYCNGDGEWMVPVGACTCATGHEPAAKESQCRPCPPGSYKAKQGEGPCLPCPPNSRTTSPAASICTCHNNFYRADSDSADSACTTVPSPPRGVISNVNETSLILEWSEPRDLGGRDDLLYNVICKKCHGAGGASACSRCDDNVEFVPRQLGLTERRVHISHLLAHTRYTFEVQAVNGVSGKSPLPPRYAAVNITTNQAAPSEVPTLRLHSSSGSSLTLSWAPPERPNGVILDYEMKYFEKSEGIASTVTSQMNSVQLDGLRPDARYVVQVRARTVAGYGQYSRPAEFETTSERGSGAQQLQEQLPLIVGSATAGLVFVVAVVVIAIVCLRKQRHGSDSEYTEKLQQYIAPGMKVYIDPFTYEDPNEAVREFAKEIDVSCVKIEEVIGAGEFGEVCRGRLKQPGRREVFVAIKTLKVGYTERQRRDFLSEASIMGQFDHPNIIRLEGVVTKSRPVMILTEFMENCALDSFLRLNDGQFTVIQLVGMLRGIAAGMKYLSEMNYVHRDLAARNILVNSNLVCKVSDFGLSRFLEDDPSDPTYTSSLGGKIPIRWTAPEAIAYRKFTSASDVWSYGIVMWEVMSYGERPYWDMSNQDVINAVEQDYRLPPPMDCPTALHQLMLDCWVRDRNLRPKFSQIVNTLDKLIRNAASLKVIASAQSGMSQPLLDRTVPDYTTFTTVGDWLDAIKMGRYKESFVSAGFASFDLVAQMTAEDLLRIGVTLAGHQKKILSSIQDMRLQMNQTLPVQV

[8] = target: T3, Ephrin type-B receptor 4 (Homo sapiens) (UniProt P54760); assay: Inhibition of human recombinant EphB4 at 40 nM in presence of ATP by radiometric assay relative to control
T3 sequence (whole entry): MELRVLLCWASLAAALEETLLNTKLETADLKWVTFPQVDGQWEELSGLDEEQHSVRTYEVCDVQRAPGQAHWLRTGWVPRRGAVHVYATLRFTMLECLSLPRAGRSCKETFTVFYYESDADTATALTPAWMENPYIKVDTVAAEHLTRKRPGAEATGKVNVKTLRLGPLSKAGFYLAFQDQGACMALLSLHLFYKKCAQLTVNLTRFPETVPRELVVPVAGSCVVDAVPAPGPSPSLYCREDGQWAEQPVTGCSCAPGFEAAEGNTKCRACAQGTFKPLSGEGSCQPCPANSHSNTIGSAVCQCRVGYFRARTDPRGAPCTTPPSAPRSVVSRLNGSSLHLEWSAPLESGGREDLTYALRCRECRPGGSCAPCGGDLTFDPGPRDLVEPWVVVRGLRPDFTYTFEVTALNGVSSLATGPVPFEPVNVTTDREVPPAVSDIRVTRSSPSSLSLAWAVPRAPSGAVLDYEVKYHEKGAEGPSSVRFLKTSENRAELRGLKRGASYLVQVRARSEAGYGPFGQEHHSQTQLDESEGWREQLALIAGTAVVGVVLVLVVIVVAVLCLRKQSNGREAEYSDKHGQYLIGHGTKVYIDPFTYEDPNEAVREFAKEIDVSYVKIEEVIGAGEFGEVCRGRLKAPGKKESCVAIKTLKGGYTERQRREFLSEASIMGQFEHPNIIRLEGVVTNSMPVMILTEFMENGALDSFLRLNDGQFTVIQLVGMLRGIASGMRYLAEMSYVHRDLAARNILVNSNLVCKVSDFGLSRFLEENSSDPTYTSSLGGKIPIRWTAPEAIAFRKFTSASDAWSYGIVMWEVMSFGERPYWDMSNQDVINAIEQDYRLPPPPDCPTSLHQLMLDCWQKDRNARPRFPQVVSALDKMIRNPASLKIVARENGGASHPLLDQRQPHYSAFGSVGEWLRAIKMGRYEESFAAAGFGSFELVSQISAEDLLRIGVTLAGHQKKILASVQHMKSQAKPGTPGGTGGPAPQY

Chain of Mitogen-activated protein kinase 1 (Homo sapiens) (P28482 whole entry): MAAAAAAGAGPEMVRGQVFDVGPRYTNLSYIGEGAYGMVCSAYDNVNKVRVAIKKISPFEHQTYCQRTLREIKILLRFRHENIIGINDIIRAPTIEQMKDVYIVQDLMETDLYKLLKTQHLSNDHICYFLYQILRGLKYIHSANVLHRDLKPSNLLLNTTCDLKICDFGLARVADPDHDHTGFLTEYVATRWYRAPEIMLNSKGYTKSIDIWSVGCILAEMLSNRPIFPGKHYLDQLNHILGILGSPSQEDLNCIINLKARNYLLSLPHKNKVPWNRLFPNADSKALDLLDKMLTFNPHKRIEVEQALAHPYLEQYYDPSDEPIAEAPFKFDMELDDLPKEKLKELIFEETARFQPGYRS

fold change (FC) [1]: 0
fold change (FC) [2]: 0.18
fold change (FC) [3]: 0
fold change (FC) [4]: 0.03
Compound: CNC(=O)c1ccccc1Oc1nc(Nc2cc(OC)c(OC)c(OC)c2)ncc1Br

inhibition [5]: 0%
fold change (FC) [6]: 0.17
fold change (FC) [7]: 0
Compound: CC(C)[C@H](NC(=O)c1cc(-c2cnn3cc(-c4ccc(OCCN5CCCCC5)cc4)cnc23)cs1)C(F)(F)F

inhibition [8]: 0%
Compound: O=C(N[C@@H](C1CC1)C(F)(F)F)c1cc(-c2cnn3cc(-c4ccc(F)cc4)cnc23)cs1
